According to patent US8298328B2, “Amorphous metal salt for facilitating the handling property of portland cements and dental applications thereof” (Taipei Medical University, priority 2008, dated 2012):

What was measured:
[1] = Crystal form by wide-angle X-ray diffraction (XRD); format: physicochemical; conditions: XRD of powder
Description: The crystal form of the CLG powder prepared above is determined by wide-angle x-ray diffraction (XRD). First, 1.00 g of CLG powder was placed in a sample carrier, and the powder filling was pressed by a slide. Then, the sample was placed on an X-ray diffractometer (MaxRC, Rigaku, Japan), and X-ray diffraction was performed by using Kα radiation (λ=1.541838A) at scan rate of 10°/min and 20 scanning angle from 5° to 60°. The peaks of X-ray diffraction data were analyzed in accordance with the Joint Committee on Powder Diffraction Standards (JCPDS).

[2] = Water solubility of the divalent metal salt powder; conditions: 25° C., dried powder
[3] = filtrate after reaction with CaO, before drying
Description: After mixing and stirring for 1 hour, the solution was filtered, and the filtrate was collected.

Molecule	Crystal form [1]	Solubility (water solubility) [2]	pH value of the filtrate solution [3]	also measured
O.O.O=S(=O)([O-])[O-].[Ca+2] [Comparative Example 1, Calcium Sulfate Dehydrate, reference compound]	Crystalline			
CC(O)C(=O)[O-].CC(O)C(=O)[O-].[Ca+2] (stereo not drawn) [Comparative Example 3, Calcium Lactate, reference compound]	Crystalline			Crystal form ([1]; listed as CL): crystalline
CC(O)C(=O)[O-].O=C([O-])[C@H](O)[C@@H](O)[C@H](O)[C@H](O)CO.[Ca+2] [Example 1, Calcium Lactate Gluconate]	Amorphous	35.7~41.0 g/100 ml	9.8	Solubility (water solubility) ([2]; listed as CLG): 35.7˜41.0 g/100 ml; Crystal form ([1]; listed as CLG): amorphous
O=C([O-])[C@H](O)[C@@H](O)[C@H](O)[C@H](O)CO.O=S(=O)([O-])O.[Ca+2] [Example 3, Calcium Sulfate Gluconate]	Amorphous	30.1~31.7 g/100 ml	9.3	Solubility (water solubility) ([2]; listed as CSG): 30.1˜31.7 g/100 ml; Crystal form ([1]; listed as CSG): amorphous
Calcium Gluconate [Comparative Example 2, reference compound]	Crystalline			Crystal form ([1]; listed as CG): crystalline
Calcium Lactate Sulfate [Example 2]	Amorphous		9.7	Crystal form ([1]; listed as CLS): amorphous
